Reference: paper PMC6761391, “Blockade of Mas Receptor or Mas-Related G-Protein Coupled Receptor Type D Reduces Portal Pressure in Cirrhotic but Not in Non-cirrhotic Portal Hypertensive Rats” (Frontiers in Physiology, 2019)
Structures can show the parent of a compound that is named as a salt. Non-standard residues stand in square brackets, D forms with d. Residues, ends and D or L forms follow the SMILES beside them.

Legend:
[1] = In vivo angiotensin (1-7) peptide metabolism assay (plasma concentration by radioimmunoassay); settings: BDL rats, 10 μg/kg i.v. bolus; for time of peak plasma concentration post-injection: blood at 30 s, 1, 2, 5 min, Ang-(1-7) radioimmunoassay (cross-reactivity for A779 and D-Pro not determined); for time of peak plasma concentration post-injection / time for circulating peptide levels to return to baseline levels after injection: 4 rats per group, plasma; for time for circulating peptide levels to return to baseline levels after injection: Ang-(1-7) radioimmunoassay; for fate in the rat circulation following a bolus injection: circulating concentrations by radioimmunoassay
Protocol: To determine the longevity of the angiotensin peptides in the rat circulation, a separate set of experiments was carried out using BDL rats. Four weeks after BDL, the rats were anesthetized with ketamine/xylazine mixture and the femoral artery and vein were cannulated using PE-10 catheters as described previously ([Grace et al., 2013]). After 30 min of stabilization, 1 ml of blood was drawn from the femoral artery as the baseline sample into an Eppendorf tube containing protease inhibitor mix (20 μl/ml of blood: 50 mmol/L Na2 EDTA, 0.2 mol/L N-ethylmaleimide, 21,000 U/ml aprotonin, 5 mg/ml leupeptin, and 1 mg/ml pepstatin; prepared fresh daily and kept on ice) to prevent breakdown of angiotensin peptides. Injection of either MasR or MrgD blockers, A779 or D-Pro (10 μg/kg), respectively, was performed thereafter via the femoral vein catheter. Blood samples were collected at 30 s, 1, 2, and 5 min after injection. A separate group of rats was injected with Ang-(1-7) peptide (10 μg/kg) and blood was collected as before. After completion of the experiment, the rats were euthanized by exsanguination. Blood samples were centrifuged at 4,000 rpm for 10 min to harvest plasma. Radioimmunoassay for Ang-(1-7) (Prosearch International, Australia, Pty Ltd) was performed to determine plasma concentration of peptide blockers and Ang-(1-7) at different time points. Twelve BDL rats were used for the experiment, with four rats in each of the three treatment groups. The extent of cross-reactivity for D-Ala (A779) and D-Pro was not determined for the Ang-(1-7) radioimmunoassay.

[2] = system: cirrhotic bile duct ligated (BDL) rats; test: Portal pressure (PP) measurement in cirrhotic bile duct ligated (BDL) rats after intravenous bolus injection; type: in vivo, Sprague Dawley rats
Protocol: (§1) Eight-week-old male Sprague Dawley rats (300–350 g BW) underwent bile duct ligation surgery (BDL) to induce cirrhosis and PHT. Rats were housed in a controlled environment with 12:12-h light to dark cycle with controlled temperature (22–24°C) and fed standard rat chow ad libitum (Norco, Lismore NSW, Australia) and water. After 1 week of acclimatization, the rats were anesthetized with isoflurane gaseous anesthesia (Therapon Pty Ltd., Victoria, Australia). The rats were also given a single dose of carprofen (5 mg/kg, Rimadyl, Australia) subcutaneously prior to surgery to limit post-operative discomfort. BDL surgery was performed as previously described ([Herath et al., 2007]). Briefly, a midline incision was made in the abdomen to enter the peritoneal cavity. The common bile duct was located and double ligated with 4/0 silk suture. The bile duct was then transacted between two ligatures. Intraoperatively, animals were kept warm on a heat pad and received 0.9% NaCl 10 ml/kg. The abdominal wall was closed in two layers using sterile 4/0 silk suture. Four weeks after BDL surgery, the rats were used for receptor blocker infusion experiments as described below.
(§2) Four weeks after BDL, 10 weeks after CCl4 and 2 weeks after PPVL, the rats were anesthetized with ketamine/xylazine mixture (75 and 10 mg/kg BW, respectively, Therapon Pty Ltd). A median laparotomy was performed, and a small PE 10 polyethylene catheter (Microtube Extrusions, NSW, Australia) was inserted into a small ileocecal vein and advanced to the portal vein to measure PP. A skin incision was made in the left inner thigh to identify the left femoral artery and cannulated with a PE 10 catheter to measure the mean arterial pressure (MAP). Portal vein and femoral artery catheters were connected to a highly sensitive pressure transducer (Zultek Engineering, Melbourne, VIC, Australia). The left femoral vein was cannulated with a similar PE 10 catheter for bolus injections of the receptor blockers. After insertion of the catheters, the rats were allowed to stabilize hemodynamically for 30 min prior to interventions.
(§3) The baseline values of PP and MAP were recorded prior to injection of the drugs. For a single receptor blocker experiments, either MasR blocker A779 (10 μg/kg) ([Grace et al., 2013]), MrgD blocker D-Pro (10 μg/kg), or AT2R blocker PD123319 (1 mg/kg) ([Yang et al., 2011]) was administered intravenously via the femoral vein catheter as a single bolus injection. The dose was calculated for each individual rat according to body weight. The bolus injection was prepared by dissolving a stock solution of […] (A779 or D-Pro) or 10 mg/ml (PD123319) in 0.9% NaCl to make a minimum injectable volume of 0.25 ml. This is to avoid variations in pressure due to adding volume to the circulation. […]

[3] = system: cirrhotic carbon tetrachloride (CCl4) injected rats; test: Portal pressure (PP) measurement in cirrhotic CCl4 rats after intravenous bolus injection; type: in vivo, Sprague Dawley rats
Protocol: (§4) Six-week-old male Sprague Dawley rats (200–250 g BW) were used to induce cirrhosis and PHT by injections of carbon tetrachloride (CCl4) as described previously ([Fallowfield et al., 2014]). Rats were housed in a controlled environment as described above. CCl4 was administered twice weekly via intraperitoneal injections, at a dose of 1 ml/kg, mixed with 1:1 ratio with olive oil. After 10 weeks of CCl4 administration, the rats were used for receptor blocker infusion experiments.
as §2
The baseline values of PP and MAP were recorded prior to injection of the drugs. For a single receptor blocker experiments, either MasR blocker A779 (10 μg/kg) ([Grace et al., 2013]), MrgD blocker D-Pro (10 μg/kg), or AT2R blocker PD123319 (1 mg/kg) ([Yang et al., 2011]) was administered intravenously via the femoral vein catheter as a single bolus injection. The dose was calculated for each individual rat according to body weight. The bolus injection was prepared by dissolving a stock solution of […] (A779 or D-Pro) or 10 mg/ml (PD123319) in 0.9% NaCl to make a minimum injectable volume of 0.25 ml. This is to avoid variations in pressure due to adding volume to the circulation. After the bolus injection of the drug, the catheter was slowly flushed with 0.25 ml 20 IU/ml heparinized saline. Measurement of PP and MAP was continued for additional 30 min after injection (Figure 2A). Each treatment group of BDL, CCl4, and PPVL consisted of six to seven rats. For each model, a separate control group of animals (n = 6 per group) received saline injections for comparison with the treatment effects.
A separate set of experiments were carried out in the two cirrhotic PHT rat models (BDL and CCl4) to investigate whether the detrimental effects of AT1R blocker losartan on systemic arterial pressure can be counteracted by a second injection of either MasR or MrgD blockers; A779 or D-Pro, respectively. In this study, a bolus injection of losartan was administered and 20 min later, a bolus injection of either A779 or D-Pro was given. The pressure measurement was carried out for additional 20 min after the second injection (Figure 2B). A total of 18 BDL and 18 CCl4 rats were used (n = 6 per treatment group).

[4] = system: MasR; settings: ref Santos et al., 2003; cited from earlier work
Excerpt: Although it is well known that Ang (1-7) produces its effects by binding to MasR and MrgD ([Santos et al., 2003]; [Tetzner et al., 2016]), early cell culture studies have reported some actions of Ang-(1-7) were mediated via the subtypes of AT1R ([Muthalif et al., 1998]; [[…] et al., 2001]). Some studies also proposed that MasR may interact with AT1R by receptor hetero-dimerization or alterations in post-receptor signaling ([Castro et al., 2005]; [Kostenis et al., 2005]; [Tesanovic et al., 2010]; [Castelo-Branco et al., 2017]; [O'Neill et al., 2017]), which in turn leads to the inhibition o ...

[5] = system: cirrhotic carbon tetrachloride (CCl4) injected rats; test: Mean arterial pressure (MAP) measurement in CCl4 rats; type: in vivo, Sprague Dawley rats; settings: CCl4 model
Protocol: as §4, §2, §3

[6] = system: cirrhotic bile duct ligated (BDL) rats; test: Mean arterial pressure (MAP) measurement in BDL rats; type: in vivo, Sprague Dawley rats; settings: BDL model
Protocol: as §1
as §2, with “The left femoral vein was cannulated with a similar PE 10 catheter for bolus injections of the receptor blockers. After insertion of the catheters, the rats were allowed to stabilize hemodynamically for 30 min prior to interventions.” left out
(§5) The baseline values of PP and MAP were recorded prior to injection of the drugs. […] The dose was calculated for each individual rat according to body weight. […]

[7] = system: non-cirrhotic partial portal vein ligated (PPVL) rats; test: Portal pressure (PP) measurement in non-cirrhotic PPVL rats after intravenous bolus injection; type: in vivo, Sprague Dawley rats; settings: non-cirrhotic PPVL rat model; single i.v. bolus (A779, D-Pro 10 μg/kg; PD123319 1 mg/kg)
Protocol: (§6) Eight-week-old male Sprague Dawley rats (300–350 g BW) were used to induce non-cirrhotic portal hypertension by partial portal vein ligation (PPVL) surgery as described previously ([Kahn et al., 1988]). Briefly, under gaseous anesthesia, a median laparotomy was performed and the portal vein was identified. A 19G needle was placed alongside the length of the portal vein, and a 4/0 silk suture was tied around the portal vein and the needle. The needle was then removed creating a calibrated stenosis in the portal vein, partially obstructing the portal flow. The abdominal wall was closed in two layers using sterile 4/0 silk suture. Two weeks after PPVL, the rats were used for receptor blocker infusion experiments.
(§7) Four weeks after BDL, 10 weeks after CCl4 and 2 weeks after PPVL, the rats were anesthetized with ketamine/xylazine mixture (75 and 10 mg/kg BW, respectively, Therapon Pty Ltd). A median laparotomy was performed, and a small PE 10 polyethylene catheter (Microtube Extrusions, NSW, Australia) was inserted into a small ileocecal vein and advanced to the portal vein to measure PP. […]
as §5

[8] = system: non-cirrhotic partial portal vein ligated (PPVL) rats; test: Mean arterial pressure (MAP) measurement in PPVL rats; type: in vivo, Sprague Dawley rats; settings: single i.v. bolus (A779, D-Pro 10 μg/kg; PD123319 1 mg/kg)
Protocol: as §6, §7, §5

[9] = system: MrgD; settings: HEK293 cells transfected with MrgD; ref Tetzner et al., 2016; cited from earlier work
Excerpt: There is some evidence that ATR2 also mediates Ang-(1-7) action. This was based on observations that the vasodilatory effects of Ang-(1-7) in vivo ([Heitsch et al., 2001]) and ex vivo and in vitro ([Tesanovic et al., 2010]; [Grace et al., 2013]) were inhibited by AT2R blockade with PD123319.

[10] = BDL model, losartan 1 mg/kg i.v. bolus
[11] = CCl4 model, losartan 1 mg/kg i.v. bolus
[12] = losartan 1 mg/kg i.v. bolus, 12 to 14 rats
[13] = CCl4 model, single i.v. bolus (A779, D-Pro 10 μg/kg; PD123319 1 mg/kg)

CC[C@H](C)[C@H](NC(=O)[C@H](Cc1ccc(O)cc1)NC(=O)[C@@H](NC(=O)[C@H](CCCNC(=N)N)NC(=O)[C@@H](N)CC(=O)O)C(C)C)C(=O)N[C@@H](Cc1c[nH]cn1)C(=O)N1CCC[C@H]1C(=O)O [Ang-(1-7), Angiotensin (1-7)]
time of peak plasma concentration post-injection [1]: 2 min | time for circulating peptide levels to return to baseline levels after injection [1]: ≤ 5 min

CCCCc1nc(Cl)c(CO)n1Cc1ccc(-c2ccccc2-c2nn[nH]n2)cc1 [losartan, losartan hydrochloride]
duration of portal pressure lowering effect post-intervention [2, 10]: up to 30 min | start of PP reduction post-injection [2, 10]: 5 min | change in PP from baseline pressure ([2]; BDL model, losartan 1 mg/kg i.v. bolus, 12 to 14 rats): significant (p < 0.01) reduction in PP | duration of portal pressure lowering effect post-intervention [3, 11]: up to 30 min | start of PP reduction post-injection [3, 11]: 5 min | change in PP from baseline pressure ([3]; CCl4 model, losartan 1 mg/kg i.v. bolus, 12 to 14 rats): significant (p < 0.01) reduction in PP | ligand for MasR [4]: not a ligand for MasR | start of MAP reduction post-injection ([5]; losartan 1 mg/kg i.v. bolus): 10 min | change in MAP from baseline [5, 12]: significantly (p < 0.01) reduced MAP | start of MAP reduction post-injection ([6]; losartan 1 mg/kg i.v. bolus): 5 min | change in MAP from baseline [6, 12]: significantly (p < 0.01) reduced MAP

Cc1cc(Cn2cnc3c2C[C@@H](C(=O)O)N(C(=O)C(c2ccccc2)c2ccccc2)C3)ccc1N(C)C [PD123319]
portal pressure reduction ([2]; BDL rats, PD123319 1 mg/kg i.v. bolus): not statistically significant | maximum reduction in portal pressure [3, 13]: 4.8% | time for which the reduction in PP persisted after injection [3, 13]: up to 20 min | change in portal pressure (PP) from baseline ([3]; CCl4 rats, single i.v. bolus (A779, D-Pro 10 μg/kg; PD123319 1 mg/kg), measured at 5 min post-injection, six to seven rats per group): significant reduction in PP | effect on portal pressure (PP) [7]: failed to reduce PP | effect on mean arterial pressure (MAP) ([5]; single i.v. bolus (A779, D-Pro 10 μg/kg; PD123319 1 mg/kg)): no effect on MAP | effect on mean arterial pressure (MAP) [8]: no effect on MAP | block of Ang-(1-7)-stimulated cAMP release [9]: completed blocked | effect on mean arterial pressure (MAP) ([6]; single i.v. bolus PD123319 1 mg/kg): no effect on MAP

CC[C@H](C)[C@H](NC(=O)[C@H](Cc1ccc(O)cc1)NC(=O)[C@@H](NC(=O)[C@H](CCCN=C(N)N)NC(=O)[C@@H](N)CC(=O)O)C(C)C)C(=O)N[C@@H](Cc1c[nH]cn1)C(=O)N1CCC[C@@H]1C(=O)O [D-Pro, D-Pro^7-Ang-(1-7)]
time of peak plasma concentration post-injection [1]: 2 min | fate in the rat circulation following a bolus injection [1]: rapidly degraded in the rat circulation | time for circulating peptide levels to return to baseline levels after injection [1]: ≤ 5 min

CC[C@H](C)[C@H](NC(=O)[C@H](Cc1ccc(O)cc1)NC(=O)[C@@H](NC(=O)[C@H](CCCNC(=N)N)NC(=O)[C@@H](N)CC(=O)O)C(C)C)C(=O)N[C@@H](Cc1cnc[nH]1)C(=O)N[C@H](C)C(=O)O [A779] (H-DRVYIH[dA]-OH)
time of peak plasma concentration post-injection [1]: 2 min | fate in the rat circulation following a bolus injection [1]: rapidly degraded in the rat circulation | time for circulating peptide levels to return to baseline levels after injection [1]: ≤ 5 min
